Data set [1] is described as follows: Solubility of compound at pH 7. The format is physicochemical. Conditions: buffer.
The nature of data set [2]: Solubility of compound at pH 2. The format is physicochemical. The following applies: buffer.
The target in data set [3] is Voltage-gated inwardly rectifying potassium channel KCNH2 (Homo sapiens, UniProt Q12809). The experiment in a line: Inhibition of MK-499 binding to hERG. The format is toxicity.
Data set [4] has as its target T1, Indoleamine 2,3-dioxygenase 1 (Homo sapiens, UniProt P14902). The data set can be described thus: Displacement of [3H] labeled-N-(4-Fluorophenyl)-3-(4-(4-(2-hydroxypropan-2-yl)-6-(trifluoromethyl)pyridin-3-yl)phenyl)oxetane-3-carboxamide from human IDO1 assessed as inhibition constant by radioligand binding assay. On the technique in general: Displacement assays read how much labelled ligand stays bound in the presence of the test substance.
Target sequence in this assay (P14902 whole entry): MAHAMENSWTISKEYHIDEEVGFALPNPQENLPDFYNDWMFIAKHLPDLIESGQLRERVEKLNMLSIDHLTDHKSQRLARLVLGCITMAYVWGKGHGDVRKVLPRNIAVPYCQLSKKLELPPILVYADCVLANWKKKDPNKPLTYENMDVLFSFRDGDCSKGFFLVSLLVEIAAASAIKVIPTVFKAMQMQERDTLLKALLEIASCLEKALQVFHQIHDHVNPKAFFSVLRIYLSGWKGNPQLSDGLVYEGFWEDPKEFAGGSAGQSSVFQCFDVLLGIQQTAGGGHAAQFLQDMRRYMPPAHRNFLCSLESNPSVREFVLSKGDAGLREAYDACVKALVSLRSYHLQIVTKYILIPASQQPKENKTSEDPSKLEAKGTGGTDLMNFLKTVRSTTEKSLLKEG

Data set [5] concerns the target T1, Indoleamine 2,3-dioxygenase 1. The experiment in a line: Displacement of [3H] labeled-N-(4-Fluorophenyl)-3-(4-(4-(2-hydroxypropan-2-yl)-6-(trifluoromethyl)pyridin-3-yl)phenyl)oxetane-3-carboxamide from human IDO1 assessed as dissociation constant by radioligand binding assay.
Target sequence in this assay (P14902 whole entry): as above
For data set [6] the target is unchanged. The experiment in a line: Inhibition of IDO1 in IFNgamma/LPS stimulated human whole blood assessed as unbound concentration using kynurenine/tryptophan as substrate preincubated with compound for 15 mins followed by incubation with IFNgamma/LPS for 18 hrs by LC/MS/MS analysis. The data set is classed as tissue-based.
Target sequence in this assay (P14902 whole entry): as above
In the next data set the target is Cytochrome P450 2C9 (Homo sapiens, UniProt P11712). The experiment in a line: Inhibition of CYP2C9 (unknown origin). The format is ADME.
Cytochrome P450 2C9, sequence (P11712 whole entry): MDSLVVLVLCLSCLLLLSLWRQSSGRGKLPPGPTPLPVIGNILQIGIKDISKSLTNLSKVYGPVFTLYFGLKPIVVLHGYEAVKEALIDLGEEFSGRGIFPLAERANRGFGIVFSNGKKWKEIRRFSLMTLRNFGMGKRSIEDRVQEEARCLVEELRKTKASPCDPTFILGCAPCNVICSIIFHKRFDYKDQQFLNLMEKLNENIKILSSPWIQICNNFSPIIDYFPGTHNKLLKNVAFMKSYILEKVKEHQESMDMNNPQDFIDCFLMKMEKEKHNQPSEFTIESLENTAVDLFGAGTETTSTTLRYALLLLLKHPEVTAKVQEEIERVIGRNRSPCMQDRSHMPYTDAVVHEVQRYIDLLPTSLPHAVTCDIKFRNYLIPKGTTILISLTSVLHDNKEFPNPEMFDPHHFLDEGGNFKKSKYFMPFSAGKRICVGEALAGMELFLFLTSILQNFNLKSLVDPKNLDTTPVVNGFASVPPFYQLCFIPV
Data set [7] is described as follows: Unbound intrinsic clearance in rat hepatocytes. The data set is classed as ADME, cell-based, Hepatocyte.
The target of data set [8] is T1, Indoleamine 2,3-dioxygenase 1. The experiment in a line: Inhibition of IDO1 in IFN gamma-stimulated human HeLa cells measured after 48 hrs by fluorescence based microplate reader assay. The format is cell-based.
Target sequence in this assay (P14902 whole entry): as the sequence (P14902 whole entry) above
Data set [9] in a line: Unbound intrinsic clearance in human hepatocytes. The format is ADME, cell-based, Hepatocyte.
Data set [10] can be described thus: Half life in rat. The format is ADME. Conditions: in vivo.
Data set [11] is described as follows: Volume of distribution at steady state in rat. The format is ADME. Conditions: in vivo.
Data set [12] can be described thus: MRT in rat. The format is ADME. Conditions: in vivo.
The target of data set [13] is T1, Indoleamine 2,3-dioxygenase 1. The experiment in a line: Displacement of [3H] labeled-N-(4-Fluorophenyl)-3-(4-(4-(2-hydroxypropan-2-yl)-6-(trifluoromethyl)pyridin-3-yl)phenyl)oxetane-3-carboxamide from human IDO1 assessed as dissociation half life by radioligand binding assay.
Target sequence in this assay (P14902 whole entry, looked up): as the sequence (P14902 whole entry) above
The nature of data set [14]: Inhibition of Calcium channel (unknown origin) current. Details: species or system Homo sapiens.
A short description of data set [15]: Half life in dog at 0.5 mg/kg, po or 0.25 mg/kg, iv by LC-MS/MS analysis. The data set is classed as ADME, organism-based, Canis lupus familiaris. The following applies: in vivo.
Data set [16] can be described thus: Oral bioavailability in dog using spray-dried dispersion at 0.5 mg/kg by LC-MS/MS analysis. The format is ADME, organism-based, Canis lupus familiaris. The following applies: in vivo.
A short description of data set [17]: Oral bioavailability in Wistar Han rat using crystalline form of sample at 1 mg/kg by LC-MS/MS analysis. The data set is classed as ADME, organism-based. The following applies: in vivo.
Data set [18] in a line: Half life in Wistar Han rat at 1 mg/kg, po or 0.5 mg/kg, iv by LC-MS/MS analysis. Conditions: in vivo. The format is ADME, organism-based.
The nature of data set [19]: Oral bioavailability in Wistar Han rat using spray-dried dispersion at 1 mg/kg by LC-MS/MS analysis. The format is ADME, organism-based. The following applies: in vivo.
For data set [20], the target named is T1, Indoleamine 2,3-dioxygenase 1. The data set can be described thus: Displacement of [3H] labeled-N-(4-Fluorophenyl)-3-(4-(4-(2-hydroxypropan-2-yl)-6-(trifluoromethyl)pyridin-3-yl)phenyl)oxetane-3-carboxamide from human IDO1 assessed as dissociation rate constant by radioligand binding assay.
Target sequence in this assay (P14902 whole entry, looked up): as the sequence (P14902 whole entry) above
In data set [21] the target is Indoleamine 2,3-dioxygenase 1 (Mus musculus) (UniProt P28776). The data set can be described thus: In vivo inhibition of human IDO1 knock-in mouse CT26 cells translated in single oral gavage dosed CD1 mouse tumor model assessed as reduction in kynurenine level in tumor measured upto 24 hrs. Conditions: dose 0.3-30 mg/kg, DDE = dose-dependent effect. The format is functional, organism-based.
Indoleamine 2,3-dioxygenase 1 (Mus musculus), sequence (P28776 whole entry, looked up): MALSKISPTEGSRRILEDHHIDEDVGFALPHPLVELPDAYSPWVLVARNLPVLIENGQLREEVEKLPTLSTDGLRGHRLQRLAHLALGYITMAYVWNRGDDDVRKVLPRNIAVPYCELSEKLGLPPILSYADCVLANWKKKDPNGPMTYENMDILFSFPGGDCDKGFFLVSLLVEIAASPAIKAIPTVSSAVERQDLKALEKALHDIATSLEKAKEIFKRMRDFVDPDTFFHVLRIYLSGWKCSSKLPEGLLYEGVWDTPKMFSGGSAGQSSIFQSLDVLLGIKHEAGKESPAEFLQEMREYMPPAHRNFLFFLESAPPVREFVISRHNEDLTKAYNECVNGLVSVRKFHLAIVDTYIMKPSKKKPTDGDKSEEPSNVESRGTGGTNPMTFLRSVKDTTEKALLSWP

Data set [22] has the same target. The data set can be described thus: In vivo inhibition of human IDO1 knock-in mouse CT26 cells translated in single oral gavage dosed CD1 mouse tumor model assessed as reduction in kynurenine level in plasma measured upto 24 hrs. The format is functional, organism-based. The following applies: dose 0.3-30 mg/kg, DDE = dose-dependent effect.
Data set [23] can be described thus: Inhibition of potassium channel (unknown origin) current. Set-up: species or system Homo sapiens.
A short description of data set [24]: Inhibition of Sodium channel (unknown origin) current. Set-up: species or system Homo sapiens.
Data set [25] can be described thus: Oral bioavailability in dog using crystalline at 0.5 mg/kg by LC-MS/MS analysis. The format is ADME, organism-based, Canis lupus familiaris. The following applies: in vivo.

In brackets after ≈: the same amount, converted by molar mass.

Voltage-gated inwardly rectifying potassium channel KCNH2, sequence (Q12809 whole entry): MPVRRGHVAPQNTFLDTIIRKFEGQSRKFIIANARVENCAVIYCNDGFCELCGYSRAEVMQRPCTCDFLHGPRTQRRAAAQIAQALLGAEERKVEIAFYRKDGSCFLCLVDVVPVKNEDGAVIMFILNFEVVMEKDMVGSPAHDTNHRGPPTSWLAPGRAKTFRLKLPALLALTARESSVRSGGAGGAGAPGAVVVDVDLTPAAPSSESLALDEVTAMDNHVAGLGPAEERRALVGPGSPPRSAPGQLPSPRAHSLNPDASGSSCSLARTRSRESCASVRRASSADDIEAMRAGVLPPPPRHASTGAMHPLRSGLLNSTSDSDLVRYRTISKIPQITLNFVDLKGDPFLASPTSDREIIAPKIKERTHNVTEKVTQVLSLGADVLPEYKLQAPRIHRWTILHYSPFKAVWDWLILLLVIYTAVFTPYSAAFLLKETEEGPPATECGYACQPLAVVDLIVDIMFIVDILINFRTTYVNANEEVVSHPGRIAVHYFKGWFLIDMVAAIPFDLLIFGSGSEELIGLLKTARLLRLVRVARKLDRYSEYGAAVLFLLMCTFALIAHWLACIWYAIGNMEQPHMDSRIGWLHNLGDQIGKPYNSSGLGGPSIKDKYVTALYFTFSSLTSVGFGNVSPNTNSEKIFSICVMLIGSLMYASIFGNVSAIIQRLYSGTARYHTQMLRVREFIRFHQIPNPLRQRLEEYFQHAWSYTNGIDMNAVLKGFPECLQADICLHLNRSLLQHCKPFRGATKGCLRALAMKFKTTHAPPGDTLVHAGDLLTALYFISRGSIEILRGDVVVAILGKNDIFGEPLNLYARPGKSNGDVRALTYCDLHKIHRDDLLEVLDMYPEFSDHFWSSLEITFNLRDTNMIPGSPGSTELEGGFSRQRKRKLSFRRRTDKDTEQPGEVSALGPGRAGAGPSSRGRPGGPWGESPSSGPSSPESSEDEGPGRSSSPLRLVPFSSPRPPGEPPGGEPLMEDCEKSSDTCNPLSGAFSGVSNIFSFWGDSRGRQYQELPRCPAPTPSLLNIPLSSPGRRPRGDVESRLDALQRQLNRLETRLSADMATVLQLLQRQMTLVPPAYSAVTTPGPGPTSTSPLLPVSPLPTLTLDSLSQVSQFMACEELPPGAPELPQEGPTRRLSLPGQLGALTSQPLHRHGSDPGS

On to `O=C(Nc1ccc(F)cc1)C1(c2ccc(-n3cnc(C4CC4)cc3=O)cc2)COC1`, for which the solubility – broadly, the dissolved amount per volume that the medium holds – in data set [1] is 143 µM (≈ 58 µg/mL); in [2], 140 µM (≈ 56.8 µg/mL). Further, the IC50 (commonly the concentration that gives 50% inhibition) in [3] is greater than 60000 nM.
Take `O=C(Nc1ccc(F)cc1)C1(c2ccc(-c3cnc(C(F)(F)F)cc3CO)cc2)COC1`: the Ki – broadly, the equilibrium dissociation constant of an inhibitor or competing ligand from its target – in data set [4] was found to be 0.15 nM. The Kd (usually the concentration at which binding is half-saturated) in [5] came to 0.158 nM. The solubility in data set [1] was 145 µM (≈ 64.7 µg/mL); in [2], 147 µM (≈ 65.6 µg/mL). The IC50 in [6] was found to be 2.5 nM; on Cytochrome P450 2C9, 6300 nM; in [8], 2 nM; in data set [3], 22800 nM. Further, the CL free in data set [7] is less than 10 mL/min/kg; in data set [9] it was 19 mL/min/kg.
Regarding `O=C(Nc1ccc(F)cc1)C1(c2ccc(-c3ccc(C4CC4)nc3)cc2)COC1`, the solubility in [1] and in data set [2] was less than 3 µM throughout. In data set [6], the IC50 was determined as 377 nM. For the same compound, the CL free was determined as 4361 mL/min/kg in [7] and 689 mL/min/kg in data set [9].
With `Cc1cc(C(F)(F)F)ncc1-c1ccc(C2(C(=O)Nc3ccc(F)cc3)COC2)cc1`, the solubility in data set [1] and in [2] was less than 3 µM in each case. Also, the CL free in data set [7] was found to be 590 mL/min/kg; in data set [9], 330 mL/min/kg.
With `O=C(Nc1ccc(C2(C(=O)Nc3ccc(F)cc3)COC2)cc1)c1cccc(Cl)c1`, the results for the CL free in data set [7] and in data set [9] were 250 mL/min/kg and 420 mL/min/kg, respectively.
Turning to `CCCNC(=O)C1(c2ccc(NC(=O)c3cccc(Cl)c3)cc2)CCC1`, the half-life (usually the time needed for the level to fall by half in the phase considered) in data set [10] is 0.89 h. Besides, the Vdss (in general, the apparent volume that relates the amount in the body to the concentration in plasma or blood) in data set [11] stood at 180 L/kg. In addition, the MRT (commonly a mean duration of stay, worked out from the concentration-time curve) in data set [12] is 0.7 h.
In the case of `O=C(Nc1ccc(F)cc1)C1(c2ccc(-c3cnc(C(F)(F)F)cc3CO)cc2)CCC1`, the solubility in data set [1] and in [2] was less than 2 µM in each case. Moreover, the concentration for half-maximal inhibition (IC50) was 905 nM against Cytochrome P450 2C9 and 11900 nM in [3]. Besides, the CL free in data set [7] was found to be 1658 mL/min/kg; in data set [9], 376 mL/min/kg.
With `CCCNC(=O)C1(c2ccc(-c3ccc(C)nc3)cc2)CCC1`, 1170 nM corresponded to half-maximal inhibition in data set [8] (IC50).
As for `O=C(Nc1ccc(F)cc1)C1(c2ccc(-c3nc(C4CC4)no3)cc2)COC1`, the solubility in data set [1] amounted to 141 µM (≈ 53.5 µg/mL); in data set [2], 40 µM (≈ 15.2 µg/mL). For the same compound, the CL free in data set [7] was 971 mL/min/kg; in [9], 4 mL/min/kg. This compound gave an IC50 in data set [3] of 13800 nM.
`CCCNC(=O)C1(c2ccc(-c3ccncc3)cc2)CCC1` came in with an IC50 in data set [8] greater than 10000 nM.
In the case of `CC(C)(O)c1cc(C(F)(F)F)ncc1-c1ccc(C2(C(=O)Nc3ccc(F)cc3)COC2)cc1`, the inhibition constant Ki in data set [4] came to 0.11 nM. For the same compound, in data set [13], the T1/2 came to 2.55 h. Moreover, the solubility in data set [1] came out at 123 µM (≈ 58.4 µg/mL); in data set [2], 124 µM (≈ 58.8 µg/mL). Also, the IC50 in data set [14] was 8300 nM; in data set [6] it was 0.29 nM; against Cytochrome P450 2C9, 8640 nM; in [8], 3 nM; in [23] it was 12000 nM; in data set [24], 40000 nM. Further, the half-life in data set [15] was 43 h; in data set [18], 7.4 h. The bioavailability (as a rule, the share of a dose that reaches the circulation, judged against a reference dose that is usually intravenous) is 50% in data set [16], 27% in data set [17], 62% in data set [19] and 16% in data set [25]. In addition, in data set [20], the K is 4.54 10^-3/min. Further, the Activity entry in data set [21] and in data set [22] was “Dde” each time. For the same compound, the CL free in data set [7] was determined as 12 mL/min/kg; in data set [9], 11 mL/min/kg.
For the compound `Cc1cc(C2CC2)ncc1-c1ccc(C2(C(=O)Nc3ccc(F)cc3)COC2)cc1`, the solubility in [1] is less than 3 µM; in [2], 139 µM (≈ 55.9 µg/mL). In data set [6], the IC50 was determined as 0.08 nM. Also, the CL free was 6156 mL/min/kg in data set [7] and 365 mL/min/kg in data set [9].
Turning to `O=C(Nc1ccc(F)cc1)C1(c2ccc(-c3cnc(C(F)(F)F)cc3CO)cc2)CC(F)(F)C1`, the solubility amounted to 17 µM (≈ 8.17 µg/mL) in data set [1] and 16 µM (≈ 7.69 µg/mL) in [2]. Besides, the IC50 against Cytochrome P450 2C9 worked out at 805 nM. Moreover, the CL free is less than 12 mL/min/kg in data set [7] and less than 6 mL/min/kg in [9].
For `CCCNC(=O)C1(c2ccc(-c3cccnc3)cc2)CCC1`, in data set [8], inhibition was half-maximal at 8020 nM (IC50).
Regarding `CCCNC(=O)C1(c2ccc(-c3ccccn3)cc2)CCC1`, the IC50 in data set [8] was greater than 10000 nM.

The record behind these values is ChEMBL document CHEMBL5154775, “Oxetane Promise Delivered: Discovery of Long-Acting IDO1 Inhibitors Suitable for Q3W Oral or Parenteral Dosing” (J Med Chem, 2022).
